Laboratory results from US20200009118A1, “COMPOSITIONS AND METHODS FOR THE TREATMENTOF NEURODEGENERATIVE AND OTHER DISEASES” (Glialogix, Inc., priority 2017, published 2020).

System: activated astrocytes
Experiment: Astrocyte activation (anti-GFAP area fraction) in spinal cord ventral horn of SOD1 mice
Format: in vivo, mouse
Description: The same test mice, spinal cord preparations and methods of analysis used in the neuroinflammatory study were identical to those used in the xCT quantitation study. Two neuroinflammatory cell populations were quantitated: (1) activated microglial cells using an antibody to the F4/80 antigen, and (2) activated astrocytes, using an antibody to the GFAP antigen. For each objective image, light parameters were optimized and kept consistent across all sections. Images that were captured at 20× were then imported into ImageJ freeware (NIH, Bethesda, Md.). A maximum entropy threshold algorithm was applied to all images in a completely blinded fashion to filter out all pixels that were not stained as DAB positive. 20× images were analyzed in a blinded fashion and mean area fraction occupied by stain was tabulated. Levels of neuroinflammation in the spinal cord were assessed by measuring the area fraction of the area of the ventral horn in the spinal cord occupied by activated astrocytes or microglia. […] The samples were then incubated with the primary antibody (Anti-GFAP) purchased from Abcam (Catalog # Ab10062; Cambridge, Mass.), diluted 1:1000 in PBS overnight at 4° C. Reaction products were developed using the Vector ImmPress system (Vector Labs, Burlingame, Calif.) using an anti-mouse IgG-conjugated horseradish peroxidase.

O=C(O)c1cc(/N=N/c2ccc(S(=O)(=O)Nc3ccccn3)cc2)ccc1O [Sulfasalazine, 2-hydroxy-5-[(E)-2-{4-[(pyridin-2-yl)sulfamoyl]phenyl}diazen-1-yl]benzoic acid]
Decreased activation vs. vehicle treated SOD1 mice (Cervical, day 85): No decrease | Decreased activation vs. vehicle treated SOD1 mice (Cervical, day 100, listed as Sulfasalazine formulation): significantly lowered astrocyte activation | Decreased activation vs. vehicle treated SOD1 mice (Cervical, day 100, listed as sulfasalazine formulation): Strong decrease (p < 0.01) | Decreased activation vs. vehicle treated SOD1 mice (Combined, day 85): Decrease (p < 0.05) | Decreased activation vs. vehicle treated SOD1 mice (Combined, day 100): Trend | Decreased activation vs. vehicle treated SOD1 mice (Lumbar, day 85, listed as Sulfasalazine formulation): significantly lowered astrocyte activation | Decreased activation vs. vehicle treated SOD1 mice (Lumbar, day 85, listed as sulfasalazine formulation): Decrease (p < 0.05) | Decreased activation vs. vehicle treated SOD1 mice (Lumbar, day 100, listed as Sulfasalazine formulation): did not affect astrocyte activation | Decreased activation vs. vehicle treated SOD1 mice (Lumbar, day 100, listed as sulfasalazine formulation): No decrease | Decreased activation vs. vehicle treated SOD1 mice (Thoracic, day 85): Trend | Decreased activation vs. vehicle treated SOD1 mice (Thoracic, day 100): No decrease
